Data on one substance can be found in patent US20200016200A1, “MODULATING CYTOTOXIC CELL LYTIC GRANULE POSITIONING TO PROMOTE DIFFUSE KILLING IN CELLULAR THERAPIES” (Baylor College of Medicine, priority 2016, published 2020).

The assay has as its system eNK cells. In words: Live cell confocal microscopy (UGATm) of antibody-dependent cellular cytotoxicity. The class given is cell-based, human. Conditions: eNK aggregated with uncoated and RTX-coated Raji cells, no LFA-1 blockade. The protocol:
FIGS. 9A-9D. LFA-1 blockade increases bystander killing. Live cell confocal microscopy of antibody-dependent cellular cytotoxicity by eNK cells pre-treated with murine IgG1 mAb control (9A) or LFA-1 blocking mAb (clone TS1/22, 9B). Green, RTX-coated Raji cells (NK-inciting targets); yellow, uncoated Raji cells (bystanders); red, LysoTracker Red (lytic granules); blue, SYTOX Blue viability dye. NK cells were mixed with the target cells immediately before the imaging process and imaged every 4 min for 4 hours. […] Data represent combined results from three healthy donors. Standard 4-hour 51Cr cytotoxicity assay of NK cells treated with LFA-1-blocking mAb or murine IgG control (9D). Each dot represents an individual healthy donor.
To apply this concept in the context of physiologic antibody-dependent cell mediated cytotoxicity (ADCC) a human therapeutic monoclonal antibody, Rituximab (RTX) was used along with NK cell resistant Raji cells that naturally express the antigen recognized by RTX. […]
YTS-CD16 and eNK cells were incubated with 5 μM LysoTracker Red DND-99 (Thermo Fisher) for 30 min at 37° C. and washed. […] Emission was detected with HyD detectors, and images were collected in a single z-plane at one frame every 4 or 30 min for 120 min. […]

On to “Rituximab: human therapeutic monoclonal antibody against CD20, used to coat Raji cells for ADCC”, for which the “killing of RTX-coated versus uncoated Raji cells” value is on record as “preferential killing of the RTX-coated Raji cells”.
